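Method: 48-hour compound exposure of cells in 96-well plates, five concentrations, linear interpolation of endpoints. GI50 marks 50% less growth. TGI: total growth inhibition.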
Columns and labels:
Experiment in all cases: NCI anticancer screen, dose series, 48 h
786-0 renal = test system: 786-0 renal
A498 renal = test system: A498 renal
A549 NSCLC = test system: A549 NSCLC
ACHN renal = test system: ACHN renal
BT-549 breast = test system: BT-549 breast
CAKI-1 renal = test system: CAKI-1 renal
CCRF-CEM leukemia = test system: CCRF-CEM leukemia
COLO 205 colon = test system: COLO 205 colon
DU-145 prostate = test system: DU-145 prostate
EKVX NSCLC = test system: EKVX NSCLC
HCC-2998 colon = test system: HCC-2998 colon
HCT-116 colon = test system: HCT-116 colon
HCT-15 colon = test system: HCT-15 colon
HL-60(TB) leukemia = test system: HL-60(TB) leukemia
HOP-62 NSCLC = test system: HOP-62 NSCLC
HOP-92 NSCLC = test system: HOP-92 NSCLC
HS 578T breast = test system: HS 578T breast
HT29 colon = test system: HT29 colon
IGROV1 ovarian = test system: IGROV1 ovarian
K-562 leukemia = test system: K-562 leukemia
KM12 colon = test system: KM12 colon
LOX IMVI melanoma = test system: LOX IMVI melanoma
M14 melanoma = test system: M14 melanoma
MALME-3M melanoma = test system: MALME-3M melanoma
MCF7 breast = test system: MCF7 breast
MDA-MB-231 breast = test system: MDA-MB-231 breast
MDA-MB-435 = test system: MDA-MB-435
MDA-MB-468 breast = test system: MDA-MB-468 breast
MOLT-4 leukemia = test system: MOLT-4 leukemia
NCI-H226 lung = test system: NCI-H226 lung
NCI-H23 lung = test system: NCI-H23 lung
NCI-H460 lung = test system: NCI-H460 lung
NCI-H522 lung = test system: NCI-H522 lung
NCI/ADR-RES ovarian = test system: NCI/ADR-RES ovarian
OVCAR-3 ovarian = test system: OVCAR-3 ovarian
OVCAR-4 ovarian = test system: OVCAR-4 ovarian
OVCAR-5 ovarian = test system: OVCAR-5 ovarian
OVCAR-8 ovarian = test system: OVCAR-8 ovarian
PC-3 prostate = test system: PC-3 prostate
RPMI-8226 leukemia = test system: RPMI-8226 leukemia
RXF 393 renal = test system: RXF 393 renal
SF-268 CNS = test system: SF-268 CNS
SF-295 CNS = test system: SF-295 CNS
SF-539 CNS = test system: SF-539 CNS
SK-MEL-2 melanoma = test system: SK-MEL-2 melanoma
SK-MEL-28 melanoma = test system: SK-MEL-28 melanoma
SK-MEL-5 melanoma = test system: SK-MEL-5 melanoma
SK-OV-3 ovarian = test system: SK-OV-3 ovarian
SN12C renal = test system: SN12C renal
SNB-19 CNS = test system: SNB-19 CNS
SNB-75 CNS = test system: SNB-75 CNS
SW-620 colon = test system: SW-620 colon
T-47D breast = test system: T-47D breast
TK-10 renal = test system: TK-10 renal
U251 CNS = test system: U251 CNS
UACC-257 melanoma = test system: UACC-257 melanoma
UACC-62 melanoma = test system: UACC-62 melanoma
UO-31 renal = test system: UO-31 renal

For CC(=O)/C=C/c1cccc2c1C(=O)NC(C)(c1cc3cc(Br)ccc3oc1=O)N2 (stereo unspecified), the GI50 (786-0 renal) was 13.4 µM, the TGI (786-0 renal) was 32 µM and the GI50 (A498 renal) was 28.1 µM. The TGI (A498 renal) was greater than 100 µM, the GI50 (A549 NSCLC) was 23.5 µM and the TGI (A549 NSCLC) was greater than 100 µM. The GI50 (ACHN renal) was 5.02 µM, the TGI (ACHN renal) was greater than 100 µM and the GI50 (BT-549 breast) was 4.78 µM. For the same compound, the TGI (BT-549 breast) was 18.9 µM, the GI50 (CAKI-1 renal) was 3.87 µM and the TGI (CAKI-1 renal) was 28.5 µM. For the same compound, the GI50 (CCRF-CEM leukemia) was 4.87 µM, the TGI (CCRF-CEM leukemia) was 56.7 µM and the GI50 (COLO 205 colon) was 19.6 µM. It also gave a TGI (COLO 205 colon) of 40.9 µM, a GI50 (DU-145 prostate) of 8.98 µM and a TGI (DU-145 prostate) of 22.3 µM. For the same compound, the GI50 (EKVX NSCLC) was 7.36 µM, the TGI (EKVX NSCLC) was 21 µM and the GI50 (HCC-2998 colon) was 15.1 µM. For the same compound, the TGI (HCC-2998 colon) was 28.6 µM, the GI50 (HCT-116 colon) was 7.13 µM and the TGI (HCT-116 colon) was 21.3 µM. For the same compound, the GI50 (HCT-15 colon) was 10.6 µM, the TGI (HCT-15 colon) was 32.4 µM and the GI50 (HL-60(TB) leukemia) was 5.61 µM. It also gave a TGI (HL-60(TB) leukemia) greater than 100 µM, a GI50 (HOP-62 NSCLC) of 15.7 µM and a TGI (HOP-62 NSCLC) of 44 µM. It also gave a GI50 (HOP-92 NSCLC) of 2190 nM, a TGI (HOP-92 NSCLC) of 18 µM and a GI50 (HS 578T breast) of 17.2 µM. It also gave a TGI (HS 578T breast) greater than 100 µM, a GI50 (HT29 colon) of 20.7 µM and a TGI (HT29 colon) of 73.6 µM. It also gave a GI50 (IGROV1 ovarian) of 8.12 µM, a TGI (IGROV1 ovarian) of 32.9 µM and a GI50 (K-562 leukemia) of 4.67 µM. It also gave a TGI (K-562 leukemia) greater than 100 µM, a GI50 (KM12 colon) of 12.4 µM and a TGI (KM12 colon) of 30.8 µM. The GI50 (LOX IMVI melanoma) was 10.1 µM, the TGI (LOX IMVI melanoma) was 22 µM and the GI50 (M14 melanoma) was 9.29 µM. The TGI (M14 melanoma) was 25.3 µM, the GI50 (MALME-3M melanoma) was 11.4 µM and the TGI (MALME-3M melanoma) was 29.9 µM. The GI50 (MCF7 breast) was 10.7 µM, the TGI (MCF7 breast) was 32.4 µM and the GI50 (MDA-MB-231 breast) was 7.35 µM. The TGI (MDA-MB-231 breast) was 39.6 µM, the GI50 (MDA-MB-435) was 10.6 µM and the TGI (MDA-MB-435) was 30.9 µM. For the same compound, the GI50 (MDA-MB-468 breast) was 4280 nM, the TGI (MDA-MB-468 breast) was 19 µM and the GI50 (MOLT-4 leukemia) was 8.47 µM. The TGI (MOLT-4 leukemia) was greater than 100 µM, the GI50 (NCI-H226 lung) was 13.6 µM and the TGI (NCI-H226 lung) was 58.6 µM. It also gave a GI50 (NCI-H23 lung) of 11.9 µM, a TGI (NCI-H23 lung) of 26.4 µM and a GI50 (NCI-H460 lung) of 15.7 µM. The TGI (NCI-H460 lung) was 67.6 µM, the GI50 (NCI-H522 lung) was 13.6 µM and the TGI (NCI-H522 lung) was 28.8 µM. It also gave a GI50 (NCI/ADR-RES ovarian) of 15 µM, a TGI (NCI/ADR-RES ovarian) of 44.5 µM and a GI50 (OVCAR-3 ovarian) of 7.56 µM. The TGI (OVCAR-3 ovarian) was 24.7 µM, the GI50 (OVCAR-4 ovarian) was 11.5 µM and the TGI (OVCAR-4 ovarian) was greater than 100 µM. It also gave a GI50 (OVCAR-5 ovarian) of 15.6 µM, a TGI (OVCAR-5 ovarian) of 38.3 µM and a GI50 (OVCAR-8 ovarian) of 10.1 µM. For the same compound, the TGI (OVCAR-8 ovarian) was greater than 100 µM, the GI50 (PC-3 prostate) was 5.95 µM and the TGI (PC-3 prostate) was 39.1 µM. The GI50 (RPMI-8226 leukemia) was 4.04 µM, the TGI (RPMI-8226 leukemia) was 33.8 µM and the GI50 (RXF 393 renal) was 2330 nM. The TGI (RXF 393 renal) was 10.7 µM, the GI50 (SF-268 CNS) was 12.4 µM and the TGI (SF-268 CNS) was 48.3 µM. For the same compound, the GI50 (SF-295 CNS) was 11.1 µM, the TGI (SF-295 CNS) was 25.4 µM and the GI50 (SF-539 CNS) was 8.67 µM. It also gave a TGI (SF-539 CNS) of 22.3 µM, a GI50 (SK-MEL-2 melanoma) of 10.2 µM and a TGI (SK-MEL-2 melanoma) of 27.3 µM. For the same compound, the GI50 (SK-MEL-28 melanoma) was 13.7 µM, the TGI (SK-MEL-28 melanoma) was 27.8 µM and the GI50 (SK-MEL-5 melanoma) was 9.78 µM. It also gave a TGI (SK-MEL-5 melanoma) of 21.6 µM, a GI50 (SK-OV-3 ovarian) of 25.2 µM and a TGI (SK-OV-3 ovarian) greater than 100 µM. For the same compound, the GI50 (SN12C renal) was 6.57 µM, the TGI (SN12C renal) was 24.6 µM and the GI50 (SNB-19 CNS) was 12.5 µM. The TGI (SNB-19 CNS) was 25.1 µM, the GI50 (SNB-75 CNS) was 1300 nM and the TGI (SNB-75 CNS) was 19.3 µM. It also gave a GI50 (SW-620 colon) of 19.5 µM, a TGI (SW-620 colon) greater than 100 µM and a GI50 (T-47D breast) of 11.5 µM. The TGI (T-47D breast) was 64 µM, the GI50 (TK-10 renal) was 24.5 µM and the TGI (TK-10 renal) was 89.6 µM. The GI50 (U251 CNS) was 12.1 µM, the TGI (U251 CNS) was 25.5 µM and the GI50 (UACC-257 melanoma) was 10.4 µM. For the same compound, the TGI (UACC-257 melanoma) was 26.2 µM, the GI50 (UACC-62 melanoma) was 7.01 µM and the TGI (UACC-62 melanoma) was 21.3 µM. For the same compound, the GI50 (UO-31 renal) was 3.59 µM and the TGI (UO-31 renal) was 19.1 µM.

CC(=O)Nc1cccc(C#Cc2cncnc2Nc2ccc(OCc3cccc(F)c3)c(Cl)c2)n1 was tested, and the GI50 (MDA-MB-468 breast) was 557 nM and the TGI (MDA-MB-468 breast) was greater than 6.26 µM.

Compound Cc1cc2nc3c4cc(C=O)ccc4n(CCN(C)C)c3nc2cc1C has a GI50 (MDA-MB-468 breast) of 1160 nM and a TGI (MDA-MB-468 breast) of 3.21 µM.

Compound O=C1C=C(Nc2ccc([N+](=O)[O-])cc2)c2ccccc2C1=O has a GI50 (MDA-MB-468 breast) of 3050 nM and a TGI (MDA-MB-468 breast) of 13.4 µM.

Work on C[C@@H]1CN(c2ccc3ncc(C#Cc4cncc(C(=O)Nc5ccc(CN6CCN(C)CC6)c(C(F)(F)F)c5)c4)n3n2)C[C@H](C)O1 yielded a GI50 (MDA-MB-468 breast) of 35.5 nM and a TGI (MDA-MB-468 breast) of 0.136 µM.

COC(=O)c1ccc2[nH]c(O)c(C(=Nc3ccc(N(C)C(=O)CN4CCN(C)CC4)cc3)c3ccc(OC)cc3)c2c1 was tested, and the GI50 (MDA-MB-468 breast) was 1600 nM and the TGI (MDA-MB-468 breast) was 3.35 µM.

From PubChem BioAssay (NCI)
